“And” between values parts separate entries of the source, which are not always exact repeats. Identical values can stand only once. Inconclusive results and toxic doses are left out.
Test system: CD2F1 mice, L1210 leukemia ip, survival T/C
Assay: NCI In Vivo Anticancer Drug Screen. Data for tumor model L1210 Leukemia (intraperitoneal) in CD2F1 (CDF1) mice
Conditions: higher = longer survival
How it was run: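 Antitumor effect is scored in animals hosting a serially transplanted tumor. Values compare compound-dosed animals against vehicle-only controls as a simple quotient.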

[1] = endpoint: mean survival time, dose: 50.0 mg/kg/injection, schedule: Q01DX009 (ip), vehicle: saline with Tween-80
[2] = endpoint: mean survival time, dose: 100.0 mg/kg/injection, schedule: Q01DX009 (ip), vehicle: saline with Tween-80
[3] = endpoint: mean survival time, dose: 200.0 mg/kg/injection, schedule: Q01DX009 (ip), vehicle: saline with Tween-80
[4] = endpoint: mean survival time, dose: 400.0 mg/kg/injection, schedule: Q01DX009 (ip), vehicle: saline with Tween-80
[5] = endpoint: mean survival time, dose: 25.0 mg/kg/injection, schedule: Q01DX009 (ip), vehicle: saline with Tween-80
[6] = endpoint: mean survival time, dose: 100.0 mg/kg/injection, schedule: Q04DX003 (ip), vehicle: saline with Tween-80
[7] = endpoint: mean survival time, dose: 200.0 mg/kg/injection, schedule: Q04DX003 (ip), vehicle: saline with Tween-80
[8] = endpoint: mean survival time, dose: 400.0 mg/kg/injection, schedule: Q04DX003 (ip), vehicle: saline with Tween-80
[9] = endpoint: mean survival time, dose: 50.0 mg/kg/injection, schedule: Q01DX009 (ip), vehicle: Klucel (hydroxypropylcellulose) (HPC)
[10] = endpoint: mean survival time, dose: 100.0 mg/kg/injection, schedule: Q01DX009 (ip), vehicle: Klucel (hydroxypropylcellulose) (HPC)

## CCCC/C=C/C1CCCCC1C (stereo not given)
[1]
  T/C: 100 % of control
[2]
  T/C: 104 % of control
[3]
  T/C: 108 % of control

## O=C(O)CC[P+](c1ccccc1)(c1ccccc1)c1ccccc1
[2]
  T/C: 95 % of control
[3]
  T/C: 92 % of control
[4]
  T/C: 89 % of control

## Cc1ccc([N+](=O)[O-])cc1NC(=O)NNC(=O)CNC(=O)Nc1ccc(F)cc1
[3]
  T/C: 87 % of control
[4]
  T/C: 92 % of control

## O=[N+]([O-])O.[In]
endpoint: mean survival time, dose: 1.25 mg/kg/injection, schedule: Q01DX009 (ip), vehicle: saline
  T/C: 93 % of control
endpoint: mean survival time, dose: 2.5 mg/kg/injection, schedule: Q01DX009 (ip), vehicle: saline
  T/C: 96 % of control
endpoint: mean survival time, dose: 5.0 mg/kg/injection, schedule: Q01DX009 (ip), vehicle: saline
  T/C: 95 % of control
endpoint: mean survival time, dose: 10.0 mg/kg/injection, schedule: Q01DX009 (ip), vehicle: saline
  T/C: 96 % of control

## Nc1nc(N)c2nc(CNc3ccc(C(=O)NC(CCC(=O)O)C(=O)O)cc3)cnc2n1 (stereo not given)
endpoint: mean survival time, dose: 0.2 mg/kg/injection, schedule: Q01DX009 (ip), vehicle: alkali diluted with saline
  T/C: 150 % of control
endpoint: mean survival time, dose: 0.3 mg/kg/injection, schedule: Q01DX009 (ip), vehicle: alkali diluted with saline
  T/C: 156 % of control
endpoint: mean survival time, dose: 0.44 mg/kg/injection, schedule: Q01DX009 (ip), vehicle: alkali diluted with saline
  T/C: 174 % of control
endpoint: mean survival time, dose: 0.67 mg/kg/injection, schedule: Q01DX009 (ip), vehicle: alkali diluted with saline
  T/C: 166 % of control
endpoint: mean survival time, dose: 0.7 mg/kg/injection, schedule: Q01DX009 (ip), vehicle: alkali diluted with saline
  T/C: 118 % of control
endpoint: mean survival time, dose: 1.0 mg/kg/injection, schedule: Q01DX009 (ip), vehicle: alkali diluted with saline
  T/C: 114 % of control
endpoint: mean survival time, dose: 1.1 mg/kg/injection, schedule: Q01DX009 (ip), vehicle: alkali diluted with saline
  T/C: 96 % of control
endpoint: mean survival time, dose: 1.5 mg/kg/injection, schedule: Q01DX009 (ip), vehicle: alkali diluted with saline
  T/C: 104 % of control
endpoint: mean survival time, dose: 1.7 mg/kg/injection, schedule: Q01DX009 (ip), vehicle: alkali diluted with saline
  T/C: 86 % of control

## Cc1cc(Br)c2ccccc2c1N(CC(=O)O)S(=O)(=O)c1ccccc1
endpoint: mean survival time, dose: 12.5 mg/kg/injection, schedule: Q01DX009 (ip), vehicle: saline with Tween-80
  T/C: 103 % of control
[5]
  T/C: 103 % of control
[1]
  T/C: 94 % of control

## C=C(C)C1(Cc2ccccc2)C(=O)NC(=S)NC1=O
endpoint: mean survival time, dose: 5.0 mg/kg/injection, schedule: Q01DX001 (ip), vehicle: saline
  T/C: 102 % of control
endpoint: mean survival time, dose: 10.0 mg/kg/injection, schedule: Q01DX001 (ip), vehicle: saline
  T/C: 102 % of control
endpoint: mean survival time, dose: 20.0 mg/kg/injection, schedule: Q01DX001 (ip), vehicle: saline
  T/C: 104 % of control

## Cc1c(Cl)ccc(Cl)c1Cl
endpoint: mean survival time, dose: 100.0 mg/kg/injection, schedule: Q01DX009 (ip), vehicle: saline sonified
  T/C: 105 % of control
endpoint: mean survival time, dose: 100.0 mg/kg/injection, schedule: Q04DX003 (ip), vehicle: saline sonified
  T/C: 104 % of control
endpoint: mean survival time, dose: 200.0 mg/kg/injection, schedule: Q01DX009 (ip), vehicle: saline sonified
  T/C: 100 % of control
endpoint: mean survival time, dose: 200.0 mg/kg/injection, schedule: Q04DX003 (ip), vehicle: saline sonified
  T/C: 101 % of control
endpoint: mean survival time, dose: 400.0 mg/kg/injection, schedule: Q01DX009 (ip), vehicle: saline sonified
  T/C: 102 % of control
endpoint: mean survival time, dose: 400.0 mg/kg/injection, schedule: Q04DX003 (ip), vehicle: saline sonified
  T/C: 106 % of control

## C#CC(O)C(CC)CCCC (stereo not given)
[1]
  T/C: 99 % of control
[2]
  T/C: 94 % of control

## CCCCCCCCCCCC(CCCC)CCCCCCCCCC (stereo not given)
endpoint: mean survival time, dose: 100.0 mg/kg/injection, schedule: Q01DX001 (ip), vehicle: saline sonified
  T/C: 96 % of control
endpoint: mean survival time, dose: 200.0 mg/kg/injection, schedule: Q01DX001 (ip), vehicle: saline sonified
  T/C: 102 % of control
endpoint: mean survival time, dose: 400.0 mg/kg/injection, schedule: Q01DX001 (ip), vehicle: saline sonified
  T/C: 108 % of control

## CCCCCCCCCCP(=O)(OCCCC)OCCCC
endpoint: mean survival time, dose: 25.0 mg/kg/injection, schedule: Q04DX003 (ip), vehicle: saline
  T/C: 102 % of control
endpoint: mean survival time, dose: 50.0 mg/kg/injection, schedule: Q04DX003 (ip), vehicle: saline
  T/C: 102 % of control
endpoint: mean survival time, dose: 100.0 mg/kg/injection, schedule: Q04DX003 (ip), vehicle: saline
  T/C: 100 % of control

## COc1ccccc1NC(=O)c1ccccc1
[2]
  T/C: 98 % of control
[3]
  T/C: 114 % of control
[4]
  T/C: 104 % of control

## CNc1ccc(Br)c2c1C(=O)c1ccccc1C2=O
[6]
  T/C: 97 % of control
[7]
  T/C: 101 % of control
[8]
  T/C: 95 % of control

## O=c1cc(CBr)c2ccccc2[nH]1
endpoint: mean survival time, dose: 25.0 mg/kg/injection, schedule: Q04DX003 (ip), vehicle: saline with Tween-80
  T/C: 103 % of control

## Cc1ccc(CNc2cccnc2)cc1
[6]
  T/C: 98 % of control
[7]
  T/C: 93 % of control
[8]
  T/C: 95 % of control

## C=C1C(=O)O[C@@H]2[C@H](O)[C@@H](C)[C@@H]3C=CC(=O)[C@@]3(C)[C@H](OC(=O)C=C(C)C)[C@H]12
endpoint: mean survival time, dose: 1.25 mg/kg/injection, schedule: Q01DX009 (ip), vehicle: saline with Tween-80
  T/C: 100 % of control
endpoint: mean survival time, dose: 2.5 mg/kg/injection, schedule: Q01DX009 (ip), vehicle: saline with Tween-80
  T/C: 102 % of control
endpoint: mean survival time, dose: 5.0 mg/kg/injection, schedule: Q01DX009 (ip), vehicle: saline with Tween-80
  T/C: 108 % of control
endpoint: mean survival time, dose: 10.0 mg/kg/injection, schedule: Q01DX009 (ip), vehicle: saline with Tween-80
  T/C: 106 % of control
endpoint: mean survival time, dose: 20.0 mg/kg/injection, schedule: Q01DX009 (ip), vehicle: saline with Tween-80
  T/C: 89 % of control

## CCCC(N)C(=O)O (stereo not given)
[1]
  T/C: 106 % of control
[2]
  T/C: 98 % of control
[3]
  T/C: 104 % of control

## O=C1CCCCC1C1(O)C(=O)Nc2ccccc21 (stereo not given)
[1]
  T/C: 91 % of control
[2]
  T/C: 95 % of control
[3]
  T/C: 87 % of control

## COc1cc2c(cc1OC)C1CC(=O)CCN1CC2 (stereo not given)
endpoint: mean survival time, dose: 12.5 mg/kg/injection, schedule: Q01DX009 (ip), vehicle: Klucel (hydroxypropylcellulose) (HPC)
  T/C: 97 % of control and 104 % of control
endpoint: mean survival time, dose: 25.0 mg/kg/injection, schedule: Q01DX009 (ip), vehicle: Klucel (hydroxypropylcellulose) (HPC)
  T/C: 97 % of control and 98 % of control
[9]
  T/C: 95 % of control and 98 % of control
[10]
  T/C: 97 % of control and 100 % of control
endpoint: median survival time, dose: 12.5 mg/kg/injection, schedule: Q01DX009 (ip), vehicle: Klucel (hydroxypropylcellulose) (HPC)
  T/C: 97 % of control
endpoint: median survival time, dose: 25.0 mg/kg/injection, schedule: Q01DX009 (ip), vehicle: Klucel (hydroxypropylcellulose) (HPC)
  T/C: 94 % of control
endpoint: median survival time, dose: 50.0 mg/kg/injection, schedule: Q01DX009 (ip), vehicle: Klucel (hydroxypropylcellulose) (HPC)
  T/C: 92 % of control
endpoint: median survival time, dose: 100.0 mg/kg/injection, schedule: Q01DX009 (ip), vehicle: Klucel (hydroxypropylcellulose) (HPC)
  T/C: 101 % of control

## C/C(=C\C(=O)c1ccccc1)OB(F)F
[2]
  T/C: 98 % of control and 100 % of control
[3]
  T/C: 110 % of control and 100 % of control
[4]
  T/C: 100 % of control

## Cc1cc(N(CCCOS(C)(=O)=O)CCCOS(C)(=O)=O)ccc1C=Nc1ccc(-c2csc(COc3ccccc3)n2)cc1
endpoint: mean survival time, dose: 100.0 mg/kg/injection, schedule: Q01DX001 (ip), vehicle: saline with Tween-80
  T/C: 89 % of control
[2]
  T/C: 90 % of control
endpoint: mean survival time, dose: 200.0 mg/kg/injection, schedule: Q01DX001 (ip), vehicle: saline with Tween-80
  T/C: 91 % of control
[3]
  T/C: 86 % of control
endpoint: mean survival time, dose: 400.0 mg/kg/injection, schedule: Q01DX001 (ip), vehicle: saline with Tween-80
  T/C: 88 % of control

## CCOC(=O)N(OCc1ccccc1)P(=O)(N1CC1(C)C)N1CC1(C)C (stereo not given)
[5]
  T/C: 95 % of control
[1]
  T/C: 93 % of control
[2]
  T/C: 98 % of control

## CC(=O)Nc1ccccc1N
[9]
  T/C: 100 % of control
[10]
  T/C: 94 % of control
endpoint: mean survival time, dose: 200.0 mg/kg/injection, schedule: Q01DX009 (ip), vehicle: Klucel (hydroxypropylcellulose) (HPC)
  T/C: 103 % of control
endpoint: mean survival time, dose: 400.0 mg/kg/injection, schedule: Q01DX009 (ip), vehicle: Klucel (hydroxypropylcellulose) (HPC)
  T/C: 107 % of control

## Nc1ccc(N=Nc2ccc3nccc(N)c3c2)c(N)n1
endpoint: mean survival time, dose: 100.0 mg/kg/injection, schedule: Q04DX002 (ip), vehicle: saline with Tween-80
  T/C: 119 % of control
endpoint: mean survival time, dose: 200.0 mg/kg/injection, schedule: Q04DX002 (ip), vehicle: saline with Tween-80
  T/C: 119 % of control
endpoint: mean survival time, dose: 400.0 mg/kg/injection, schedule: Q04DX002 (ip), vehicle: saline with Tween-80
  T/C: 119 % of control

## O=C1CCc2ccccc2C1C(=O)CC(O)(c1ccccc1)c1ccccc1 (stereo not given)
[6]
  T/C: 100 % of control
[7]
  T/C: 102 % of control

Source: PubChem BioAssay AID256 (DTP/NCI, 2004)
